Results as given in ChEMBL document CHEMBL1158963, “Taxinine M, a new tetracyclic taxane from Taxus brevifolia” (J Nat Prod, 1991).
Values after ≈ are worked out from the molar mass of the structure shown.

assay: Toxicity in brine shrimp after 24 hrs; assay type: organism-based; settings: artemia, in vivo

Structure (SMILES) | LC50 at 24 h
CC(=O)O[C@H]1C(=O)[C@@]2(C)[C@H]([C@H](OC(=O)c3ccccc3)[C@]3(O)C[C@H](OC(=O)[C@H](O)[C@@H](NC(=O)c4ccccc4)c4ccccc4)C(C)=C1C3(C)C)[C@]1(OC(C)=O)CO[C@@H]1C[C@@H]2O [PACLITAXEL] | 0.28 µg/mL (≈ 0.328 µM)
C/C=C(\C)C(=O)N[C@@H](c1ccccc1)[C@@H](O)C(=O)O[C@H]1C[C@@]2(O)[C@@H](OC(=O)c3ccccc3)[C@@H]3[C@]4(OC(C)=O)CO[C@@H]4C[C@H](O)[C@@]3(C)C(=O)[C@H](OC(C)=O)C(=C1C)C2(C)C [CEPHALOMANNINE] | 0.81 µg/mL (≈ 0.974 µM)
C=C1[C@@H](O)C[C@H](OC(C)=O)[C@@]2(COC(=O)c3ccccc3)[C@@H](OC(C)=O)[C@H](OC(C)=O)[C@@]3(O)[C@]4(C)OC[C@]3(C)C(CC4=O)[C@@H](OC(C)=O)[C@H]12 [TAXININE M] | 620 µg/mL (≈ 903 µM)
